The values that follow come from PubChem BioAssay (NCI).

Molecules are shown by their SMILES.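 Exposure lasted 48 hours, with cells grown in 96-well plates and compounds tested at five concentrations. At the TGI there is no net growth.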

Some test systems named below: SW-620 colon; MALME-3M melanoma; U251 CNS; UO-31 renal; OVCAR-4 ovarian; NCI-H226 lung; UACC-257 melanoma; EKVX NSCLC; LOX IMVI melanoma.
What all share (assay): NCI anticancer screen, dose series, 48 h

For `CCOC(=O)NC/C=C/CO`, the TGI in the test with SW-620 colon, in the test with MALME-3M melanoma, in the test with U251 CNS, in the test with UO-31 renal, in the test on OVCAR-4 ovarian and with NCI-H226 lung was greater than 100 µM throughout. The compound further came in with a TGI in the test with UACC-257 melanoma greater than 100 µM.
Take `CCOC(=O)C1C(=O)C(=O)N2CCc3c([nH]c4ccccc34)C12` (stereo not drawn): the TGI in the test with SW-620 colon, with EKVX NSCLC, in the test with MALME-3M melanoma, with U251 CNS, in the test with UO-31 renal and in the test on OVCAR-4 ovarian was greater than 100 µM each time.
Take `CN(C)c1ccc(/C=C2\Cc3ccccc3C2=O)cc1Br`: the TGI in the test with SW-620 colon, in the test with EKVX NSCLC, in the test on MALME-3M melanoma, in the test with U251 CNS, in the test on UO-31 renal and in the test on OVCAR-4 ovarian was greater than 100 µM each time. The TGI in the test on UACC-257 melanoma is greater than 100 µM.
Regarding `O=[N+]([O-])C1(CO)COC(CCc2ccccc2)OC1` (stereo not drawn), the TGI with LOX IMVI melanoma, in the test on SW-620 colon, in the test with EKVX NSCLC, in the test on MALME-3M melanoma, with U251 CNS and with UO-31 renal was greater than 100 µM each time. The TGI in the test on OVCAR-4 ovarian and in the test with UACC-257 melanoma was greater than 100 µM each time.
Take `CC(=O)OCC1OC(OC(C)=O)C(NC#N)C(OC(C)=O)C1OC(C)=O` (stereo not drawn): the TGI in the test with LOX IMVI melanoma, with SW-620 colon, with MALME-3M melanoma, in the test with U251 CNS, in the test with UO-31 renal and in the test on OVCAR-4 ovarian was greater than 100 µM in each case.
`O=C1NC2(CCCCC2)C2=C1CCCCC2`: the TGI in the test on LOX IMVI melanoma, in the test with SW-620 colon, in the test on EKVX NSCLC, in the test on MALME-3M melanoma, in the test on U251 CNS and in the test with UO-31 renal was greater than 100 µM throughout. The TGI with OVCAR-4 ovarian and with UACC-257 melanoma was greater than 100 µM in each case.
As for `COC(=O)N/N=C(\c1nc2ccc(Cl)cc2[nH]c1=O)C(O)c1ccc([N+](=O)[O-])cc1` (stereo not drawn), the TGI in the test with LOX IMVI melanoma, in the test on SW-620 colon, in the test on MALME-3M melanoma, in the test with U251 CNS, in the test with UO-31 renal and in the test with OVCAR-4 ovarian was greater than 100 µM throughout. Moreover, the TGI in the test on NCI-H226 lung and in the test with UACC-257 melanoma was greater than 100 µM each time.
Regarding `CC1=C2[C@@H](c3ccccc3)C3C=CC2(C=C3C(F)(F)F)N(C(=O)NC2CCCCC2)C1=O` (stereo partly drawn), the TGI in the test on LOX IMVI melanoma, in the test with SW-620 colon, with EKVX NSCLC, in the test with MALME-3M melanoma, in the test with U251 CNS and in the test with UO-31 renal was greater than 100 µM throughout. Further, the TGI in the test on OVCAR-4 ovarian and in the test with UACC-257 melanoma was greater than 100 µM in each case.
`Cc1[nH]n(C(=O)c2ccc(Cl)cc2)c(=O)c1/C=C1\C(O)=CC(=O)c2ccccc21`: the TGI in the test on LOX IMVI melanoma, in the test with SW-620 colon, in the test on EKVX NSCLC, with MALME-3M melanoma, in the test on U251 CNS and with UO-31 renal was greater than 100 µM each time. For the same compound, the TGI in the test with OVCAR-4 ovarian and with UACC-257 melanoma was greater than 100 µM each time.
With `CCCCc1c2c(nc3c1CC/C(=C\c1ccccc1)C3=O)CCCC2`, the TGI in the test with LOX IMVI melanoma was 3.48 µM; with SW-620 colon, 5.32 µM; in the test on EKVX NSCLC, 24.9 µM; with MALME-3M melanoma, 20.2 µM; in the test with U251 CNS it was 10.8 µM; with UO-31 renal, 19.1 µM. The compound also came in with a TGI in the test with UACC-257 melanoma of 18.3 µM.
As for `CCNC(=O)O/N=C1/C=C2CC[C@@H]3C(CC[C@@]4(C)C3CC[C@@H]4OC(=O)NCC)[C@@]2(C)CC1` (stereo partly drawn), the TGI with LOX IMVI melanoma was determined as 11.9 µM; in the test with SW-620 colon, 11.4 µM; in the test with EKVX NSCLC it was 16.2 µM; in the test with U251 CNS, 5.28 µM; with UO-31 renal, 3.46 µM; with OVCAR-4 ovarian it was 6.39 µM. Moreover, the TGI in the test on UACC-257 melanoma turned out to be 11.1 µM.
In the case of `CN1OC(CO)CC12C1CC3CC(C1)CC2C3` (stereo not drawn), the TGI with LOX IMVI melanoma, in the test with SW-620 colon, in the test on MALME-3M melanoma, with U251 CNS, in the test with UO-31 renal and in the test with OVCAR-4 ovarian was greater than 100 µM in each case.
Take `CCCNc1ncnc2c1cnn2C`: the TGI in the test with LOX IMVI melanoma, in the test on SW-620 colon, with MALME-3M melanoma, in the test with U251 CNS, in the test with OVCAR-4 ovarian and in the test with NCI-H226 lung was greater than 100 µM each time. For the same compound, the TGI in the test on UACC-257 melanoma is greater than 100 µM.
As for `Cn1nc(-c2ccccc2)c(C(=O)/C=C/c2ccccc2)c(N2CCCC2)c1=O`, the TGI in the test with LOX IMVI melanoma turned out to be 88.2 µM; with SW-620 colon it was 53.7 µM; with EKVX NSCLC it was 53.5 µM; in the test with U251 CNS, 26.4 µM; in the test with UO-31 renal, 38.7 µM.
